Source: patent publication US5710151A, “Method of treating urinary bladder dysfunctions” (priority 1996, dated 1998)
Where a name gives a salt, the structure may show the parent alone.

Biological target: muscarinic receptors
Assay: inhibition of binding of 3H-oxotremorine-M to muscarinic receptors
Conditions: 3 nM 3H-oxotremorine-M, rat cerebral cortical membranes, pH 7.4, 15 min, 25° C.; read-out: Inhibition of ^3 H-Oxo
Description: The affinity of the compounds for the muscarinic receptors was determined using the non-selective agonist ligand, ^3 H-oxotremorine-M. Birdsdall N. J. M., Hulme E. C., and Burgen A. S. V. "The Character of Muscarinic Receptors in Different Regions of the Rat Brain", 207 Proc. Roy. Soc. 1 (London, Series B, 1980). Each compound was tested to determine the affinity of the compound for the muscarinic receptors using the following procedure.
For in vitro binding, male Sprague-Dawley (Harlan Sprague-Dawley, Indianapolis, Ind.) rats weighing from about 100 to about 150 grams each were sacrificed by decapitation. The brains were quickly removed and the cerebral cortex were dissected from the brain. The cerebral cortex tissue was homogenized in 10 volumes of 0.32M sucrose and […] at about 1000×g. The supernatant was centrifuged at about 12,000×g for about 10 minutes and the resulting pellet was resuspended in 20 mM tris-Cl, pH 7.4. The resuspended pellet was centrifuged again for about 10 minutes at about 50,000×g. The resulting homogenate was preincubated for about 10 minutes at about 25° C. and centrifuged again for about 10 minutes at about 50,000×g. The pellet was resuspended at 1 gram of pellet per 3 ml of buffer and frozen at about -80° C. until used.
The inhibition of binding of ^3 H-oxotremorine-M to muscarinic receptors was determined by mixing the compound of the Example, 3 nM ^3 H-oxotremorine-M (about 87 Ci/mmoles, New England Nuclear, Boston Mass.), and cerebral cortical membranes equivalent to about 10 mg wet weight, which is about 100 μg of cortical membrane protein, in about 1 ml total volume of […] tris-Cl buffer, pH 7.4, containing 1 mM MnCl2. The aforementioned homogenates mixture was incubated for about 15 minutes at about 25° C. and then the homogenates were filtered through glass filters (Whatman, GF/C) with vacuum. The filters were washed 3 times with about 2 ml of cold tris-Cl buffer, and placed in scintillation vials containing about 10 ml of scintillation fluid (Ready Protein+, Beckman, Fullerton, Calif.). Radioactivity trapped on the filters was determined by liquid scintillation spectrometry. Nonspecific binding was determined using 1 μM atropine. The concentration of compound required to inhibit specific binding 50% (IC50) was determined using standardized computer assisted calculations (DeLean, A. et al. Am. J. Physiol., 235, (1978)).

| Structure (SMILES) | IC50 [nM] |
| --- | --- |
| FC(F)(F)CCCSc1nsnc1[C@@H]1CN2CCC[C@@H]1C2 [Compound 130, (5S,6S)-6-(3-(4,4,4-trifluoro-1-butylthio)-1,2,5-thiadiazol-4-yl)-1-azabicyclo[3.2.1]octane oxalate] | 1.8 |
| CCCCSc1nsnc1[C@H]1CN2CCC[C@H]1C2 [Compound 112, (5R,6R)-6-(3-butylthio-1,2,5-thiadiazol-4-yl)-1-azabicyclo[3.2.1]octane (-) D-tartrate] | 0.6 |
| N#Cc1ccc(CSc2nsnc2[C@@H]2CN3CCC[C@@H]2C3)cc1 (relative stereo) [Compound 82, Exo-6-(3-(4-cyanobenzylthio)-1,2,5-thiadiazol-4-yl)-1-azabicyclo[3.2.1]octane oxalate] | 1.3 |
| CC(C)CCCSc1nsnc1[C@@H]1CN2CCC[C@@H]1C2 [Compound 158, (5S,6S)-6-(3-isohexylthio-1,2,5-thiadiazol-4-yl)-1-azabicyclo[3.2.1]octane oxalate] | 10 |
| N#CCSc1nsnc1C1CN2CCC1CC2 (centres unmarked) [Compound 103, 3-(3-Cyanomethylthio-1,2,5-thiadiazol-4-yl)-1-azabicyclo[2.2.2]octane oxalate] | 2.7 |
| Cn1nnnc1SCCCCSc1nsnc1C1CN2CCC1CC2 (centres unmarked) [Compound 106, 3-(3-(1-Methyltetrazol-5-ylthio)butylthio-1,2,5-thiadiazol-4-yl)-1-azabicylo[2.2.2]octane oxalate] | 2.8 |
| CCCSc1nsnc1C1CN2CCC1CC2 (centres unmarked) [Compound 53, 3-(3-Propylthio-1,2,5-thiadiazol-4-yl)-1-azabicyclo[2.2.2]octane oxalate] | 0.9 |
| CCCCOc1nsnc1C1CN2CCC1CC2 (centres unmarked) [Compound 46, 3-(3-Butoxy-1,2,5-thiadiazol-4-yl)-1-azabicyclo[2.2.2]octane oxalate] | 1.6 |
| CCOc1nsnc1[C@@H]1CN2CCC[C@@H]1C2 (relative stereo) [Compound 19, Exo-6-(3-ethoxy-1,2,5-thiadiazol-4-yl)-1-azabicyclo[3.2.1]octane oxalate] | 1.2 |
| CCCSc1nsnc1[C@H]1CN2CCC[C@H]1C2 [Compound 113, (5R,6R)-6-(3-propylthio-1,2,5-thiadiazol-4-yl)-1-azabicyclo[3.2.1]octane (+) L-tartrate] | 0.89 |
| CCCOc1nsnc1[C@@H]1CN2CCC[C@@H]1C2 (relative stereo) [Compound 119, Exo-6-(3-propoxy-1,2,5-thiadiazol-4-yl)-1-azabicyclo[3.2.1]octane oxalate] | 0.9 |
| CCCSc1nsnc1[C@@H]1CN2CCC[C@@H]1C2 (relative stereo) [Compound 58, Exo-6-(3-propylthio-1,2,5-thiadiazol-4-yl)-1-azabicyclo[3.2.1]octane oxalate] | 0.8 |
| CCCCCCOc1nsnc1[C@@H]1CN2CCC[C@@H]1C2 (relative stereo) [Compound 122, Exo-6-(3-hexyloxy-1,2,5-thiadiazol-4-yl)-1-azabicyclo[3.2.1]octane oxalate] | 2.1 |
| CCCCSc1nsnc1C1CN2CCC1CC2 (single isomer, unassigned) [Compound 56, (+) 3-(3-Butylthio-1,2,5-thiadiazol-4-yl)-1-azabicyclo[2.2.2]octane (-)D-tartrate] | 0.4 |
| c1ccc(OCCSc2nsnc2[C@@H]2CN3CCC[C@@H]2C3)cc1 (relative stereo) [Compound 133, Exo-6-(3-(2-phenoxyethylthio)-1,2,5-thiadiazol-4-yl)-1-azabicyclo[3.2.1]octane oxalate] | 1.3 |
| FC(F)(F)CCCSc1nsnc1[C@H]1CN2CCC[C@H]1C2 [Compound 167, (5R,6R)-6-(3-(4,4,4-trifluorobutylthio)-1,2,5-thiadiazol-4-yl)-1-azabicyclo[3.2.1]octane oxalate] | 0.76 |
| Cc1nnc(SCCCCSc2nsnc2C2CN3CCC2CC3)s1 (centres unmarked) [Compound 107, oxalate] | 1 |
| CCCCOc1nsnc1[C@@H]1CN2CCC[C@@H]1C2 (relative stereo) [Compound 120, Exo-6-(3-butoxy-1,2,5-thiadiazol-4-yl)-1-azabicyclo[3.2.1]octane oxalate] | 0.9 |

| Structure (SMILES) | IC50 [nM] |
| --- | --- |
| CC(C)CCCSc1nsnc1[C@H]1CN2CCC[C@H]1C2 [Compound 157, (5R,6R)-6-(3-isohexylthio-1,2,5-thiadiazol-4-yl)-1-azabicyclo[3.2.1]octane (+) L-tartrate] | 10 |
| CCCCCSc1nsnc1[C@@H]1CN2CCC[C@@H]1C2 (relative stereo) [Compound 31, Exo-6-(3-pentylthio-1,2,5-thiadiazol-4-yl)-1-azabicyclo[3.2.1]octane oxalate] | 1.8 |
| c1ccc(OCCSc2nsnc2C2CN3CCC2CC3)cc1 (centres unmarked) [Compound 102, 3-(3-(2-Phenoxyethylthio)-1,2,5-thiadiazol-4-yl)-1-azabicyclo[2.2.2]octane fumarate] | 4.5 |
| CCCCSc1nsnc1[C@@H]1CN2CCC[C@@H]1C2 [Compound 111, (5S,6S)-6-(3-butylthio-1,2,5-thiadiazol-4-yl)-1-azabicyclo[3.2.1]octane (+) L-tartrate] | 1 |
| CC(C)CCSc1nsnc1[C@@H]1CN2CCC[C@@H]1C2 (relative stereo) [Compound 77, Exo-6-(3-isopentylthio-1,2,5-thiadiazol-4-yl)-1-azabicyclo[3.2.1]octane] | 2.7 |
| CCSc1nsnc1[C@@H]1CN2CCC[C@@H]1C2 (relative stereo) [Compound 32, Exo-6-(3-ethylthio-1,2,5-thiadiazol-4-yl)-1-azabicyclo[3.2.1]octane oxalate] | 1.3 |
| CCCCSc1nsnc1C1CN2CCC1CC2 (centres unmarked) [Compound 13, 3-(3-Butylthio-1,2,5-thiadiazol-4-yl)-1-azabicyclo[2.2.2]octane fumarate] | 1.9 |
| CCCCSc1nsnc1[C@@H]1CN2CCC[C@@H]1C2 (relative stereo) [Compound 30, Exo-6-(3-butylthio-1,2,5-thiadiazol-4-yl)-1-azabicyclo[3.2.1]octane oxalate] | 0.4 |
| CSc1nsnc1[C@@H]1CN2CCC[C@@H]1C2 (relative stereo) [Compound 74, Exo-6-(3-methylthio-1,2,5-thiadiazol-4-yl)-1-azabicyclo[3.2.1]octane oxalate] | 1.4 |
| CCCCCOc1nsnc1[C@@H]1CN2CCC[C@@H]1C2 (relative stereo) [Compound 59, Exo-6-(3-pentyloxy-1,2,5-thiadiazol-4-yl)-1-azabicyclo[3.2.1]octane oxalate] | 1 |
| CCOc1nsnc1C1CN2CCC1CC2 (centres unmarked) [Compound 9, 3-(3-Ethoxy-1,2,5-thiadiazol-4-yl)-1-azabicyclo[2.2.2]octane fumarate] | 2.1 |
| c1csc(CCCSc2nsnc2C2CN3CCC2CC3)c1 (centres unmarked) [Compound 104, 3-(3-(3-(2-Thienyl)propylthio)-1,2,5-thiadiazol-4-yl)-1-azabicyclo[2.2.2]octane fumarate] | 2.6 |
| CSc1nsnc1C1CN2CCC1CC2 (centres unmarked) [Compound 131, 3-(3-Methylthio-1,2,5-thiadiazol-4-yl)-1-azabicyclo[2.2.2]octane oxalate] | 2.8 |
| CCCSc1nsnc1[C@@H]1CN2CCC[C@@H]1C2 [Compound 114, (5S,6S)-6-(3-propylthio-1,2,5-thiadiazol-4-yl)-1-azabicyclo[3.2.1]octane (-) D-tartrate] | 0.45 |
| CCCCCCSc1nsnc1[C@@H]1CN2CCC[C@@H]1C2 (relative stereo) [Compound 29, Exo-6-(3-hexylthio-1,2,5-thiadiazol-4-yl)-1-azabicyclo[3.2.1]octane oxalate] | 1.2 |
| CC(C)CCCSc1nsnc1[C@@H]1CN2CCC[C@@H]1C2 (relative stereo) [Compound 76, Exo-6-(3-isohexylthio-1,2,5-thiadiazol-4-yl)-1-azabicyclo[3.2.1]octane oxalate] | 7.7 |
| CCSc1nsnc1C1CN2CCC1CC2 (centres unmarked) [Compound 52, 3-(3-Ethylthio-1,2,5-thiadiazol-4-yl)-1-azabicyclo[2.2.2]octane oxalate] | 1.8 |
